{"source": "paper PMC4704819", "about": "“Honey Bee Allatostatins Target Galanin/Somatostatin-Like Receptors and Modulate Learning: A Conserved Function?” (PLoS ONE, 2016)", "key": {"[1]": {"system": "mock-transfected HEK293 cells", "experiment": "Intracellular cAMP reporter assay, mock-transfected HEK293 cells (empty vector)", "type": "cell-based, human", "procedure": "(§1) For intracellular cAMP measurements, cells were bathed in trypsin EDTA and collected, then suspended in fresh DMEM. Transfections with pRK5-ApimeAstC-R, pRK5-ApimeAstA-R or empty pRK5 vector were carried out in 15 ml Falcon tubes. Transfection medium for HEK293 cells was prepared using the Lipofectamine LTX kit (Invitrogen) with 2.5 ml Opti-MEM® (Gibco), 12.5 μl Plus™ Reagent and 4 μg of ApimeASTC-R (or ApimeASTA-R, or empty) expression construct, and 2 μg of CRE(6x)-Luc plasmid. The luciferase ORF, downstream of six tandem repeats of a cyclic AMP responsive element (CRE), in front of a minimum collate promoter, was used as a reporter gene (this reporter plasmid has been used by others)\n(§2) We followed a previousy published protocol: HEK293 cells in Dulbecco's Modified Eagles Medium nutrient mixture F12-Ham (DMEM/F12, Sigma–Aldrich) supplemented with 10% heat-inactivated fetal bovine serum (Gibco), 100 IU/ml penicillin, 100 μg/ml streptomycin (Gibco) were maintained in an incubator at 37°C with constant supply of 5% CO2, until they reached 60–80% confluence. Cells were then bathed in trypsin EDTA (Gibco) until rounded. The flask was then tapped to loosen the cells, which were subsequently washed off with 5 ml DMEM/F12. The cells were gently centrifuged at 800 rpm for 5 minutes and carefully suspended in fresh DMEM, which was divided in two for transfection with receptor constructs or empty vectors. After 5 min at room temperature, 30 μl LTX was added. After an incubation period of 30 min at room temperature, the DNA/LTX mix was added to the cells. The cells were then aliquoted (100 μl per well) into a clear bottom 96-well plate (Greiner bio-one #655090) and incubated overnight (37°C, 5% CO2).\n(§3) Prior to measuring cAMP, the cell medium was removed by carefully inverting the 96-well plate on filter paper and quickly replaced with 100 μl of DMEM/F12 without phenol red (Invitrogen), but containing 200 μM 3-isobutyl-1-methylxanthine (IBMX, Sigma–Aldrich) to prevent cAMP breakdown, as well as drugs to be tested. In each experiment, some wells were used to measure basal levels of cAMP in the cells (negative control), while others were used to measure cAMP levels in cells exposed to 10 μM forskolin analogue (NKH-477, Sigma Aldrich, positive control). […] All cells were incubated at 37°C and 5% CO2 for 3–4 h to allow transcription of the reporter gene before 100 μl of freshly reconstituted Steadylite Plus™ substrate (PerkinElmer) was added to each well. The 96-well plate was then placed in the dark for 15 min before light emission resulting from luciferase enzymatic activity was recorded. Measurements lasting 0.2 s/well were taken every 55 s for 10 cycles using a FLUOstar Omega microplate reader (BMG Labtech). Results were analyzed by means of the Omega software packages and further processed by Excel and GraphPad Prism softwares. In order to facilitate comparisons across experiments, bioluminescence levels are expressed relative to those in mock-transfected cells (transfected with the vector devoid of the receptor sequence) untreated with NKH-477, which were arbitrarily set at 100.\n(§4) To test this prediction, we expressed the two receptors separately in HEK293 cells together with the luciferase reporter gene, downstream of the cAMP response element, CRE, but without exogenous G proteins."}, "[2]": {"biological_target": "T1, Apime-ASTA-R (Apis mellifera, UniProt A0A7M7ILT1)", "T1 sequence (A0A7M7ILT1 1-361)": "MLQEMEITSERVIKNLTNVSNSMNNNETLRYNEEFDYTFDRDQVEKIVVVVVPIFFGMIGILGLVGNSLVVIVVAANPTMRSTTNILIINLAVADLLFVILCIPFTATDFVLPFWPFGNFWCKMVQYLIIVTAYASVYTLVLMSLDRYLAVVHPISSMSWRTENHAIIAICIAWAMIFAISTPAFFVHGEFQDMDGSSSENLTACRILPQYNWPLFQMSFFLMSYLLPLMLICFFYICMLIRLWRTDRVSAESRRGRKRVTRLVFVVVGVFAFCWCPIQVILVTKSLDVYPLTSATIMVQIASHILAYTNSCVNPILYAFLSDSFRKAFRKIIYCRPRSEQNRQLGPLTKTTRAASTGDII", "experiment": "Intracellular cAMP reporter assay, HEK293 cells expressing Apime-ASTA-R", "type": "cell-based", "procedure": "as §1\nWe followed a previousy published protocol: HEK293 cells in Dulbecco's Modified Eagles Medium nutrient mixture F12-Ham (DMEM/F12, Sigma–Aldrich) supplemented with 10% heat-inactivated fetal bovine serum (Gibco), 100 IU/ml penicillin, 100 μg/ml streptomycin (Gibco) were maintained in an incubator at 37°C with constant supply of 5% CO2, until they reached 60–80% confluence. Cells were then bathed in trypsin EDTA (Gibco) until rounded. The flask was then tapped to loosen the cells, which were subsequently washed off with 5 ml DMEM/F12. […]\nPrior to measuring cAMP, the cell medium was removed by carefully inverting the 96-well plate on filter paper and quickly replaced with 100 μl of DMEM/F12 without phenol red (Invitrogen), but containing 200 μM 3-isobutyl-1-methylxanthine (IBMX, Sigma–Aldrich) to prevent cAMP breakdown, as well as drugs to be tested. […] The 96-well plate was then placed in the dark for 15 min before light emission resulting from luciferase enzymatic activity was recorded. Measurements lasting 0.2 s/well were taken every 55 s for 10 cycles using a FLUOstar Omega microplate reader (BMG Labtech). Results were analyzed by means of the Omega software packages and further processed by Excel and GraphPad Prism softwares. […]"}, "[3]": {"biological_target": "T2, Apime-ASTC-R (Apis mellifera, UniProt A0A7M7GNE5)", "T2 sequence (A0A7M7GNE5 1-423)": "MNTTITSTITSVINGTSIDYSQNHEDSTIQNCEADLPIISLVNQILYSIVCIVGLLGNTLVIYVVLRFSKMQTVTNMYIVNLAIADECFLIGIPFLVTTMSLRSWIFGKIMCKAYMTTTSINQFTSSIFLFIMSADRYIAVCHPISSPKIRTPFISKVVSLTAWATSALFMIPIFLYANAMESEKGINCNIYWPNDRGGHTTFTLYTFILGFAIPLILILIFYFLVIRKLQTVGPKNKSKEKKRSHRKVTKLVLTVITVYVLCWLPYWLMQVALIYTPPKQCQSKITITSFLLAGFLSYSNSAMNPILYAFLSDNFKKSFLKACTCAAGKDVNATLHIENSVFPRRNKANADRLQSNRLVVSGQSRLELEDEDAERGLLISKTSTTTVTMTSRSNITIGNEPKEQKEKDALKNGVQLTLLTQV", "experiment": "Intracellular cAMP reporter assay, HEK293 cells expressing Apime-ASTC-R", "type": "cell-based", "conditions": "Fig 5B, 2 transfections in duplicates or triplicates", "procedure": "as §1, §2, §3, §4"}, "[4]": {"biological_target": "T1, Apime-ASTA-R", "experiment": "Intracellular calcium measurement, HEK293 cells expressing Apime-ASTA-R with Gαqi9 chimeric G protein", "type": "cell-based", "procedure": "(§5) This vector contains an ATG initiation codon in phase with a mammalian signal peptide sequence of metabotropic glutamate receptor 5 to address receptor protein to the cell membrane, with a hemagglutinin sequence (TAG HA), and MluI and HindIII restriction sites used for cloning. The coding regions of the genes of interest were PCR amplified from cDNA template. After extraction from whole brains, 1 μg of total RNA was reverse-transcribed with random primers. […] PCR reactions included: 30s at 98°C, then 30 cycles of 10s at 98°C, 30s at 60°C, 1 min at 72°C and finally, 5 minutes at 72°C. Cloning required several amplification and digestion steps to insert the full cDNA sequences in the vector.\nIn all cases, 2 μg of plasmid DNA encoding the Gαqi9 chimeric G protein was included to enable artificial coupling of the receptors to phospholipase C. Electroporation (250 V, 800 μF, Biorad GenePulser X-cell) was performed in a total volume of 300 μl of electroporation buffer (50 mM K2HPO4, 20 mM CH3COOK, 20 mM KOH, 26.5 mM MgSO4, pH 7.4). After electroporation, cells were resuspended in 10 ml of culture medium and split (100 μl/well) into polyornithine-coated (Sigma #P3655), black-walled, clear bottom 96-well plates (Greiner bio-one #655090) and grown for a further 48 h prior to analyzing receptor properties. All products used for cell culture were purchased from Invitrogen Life Technologies.\nCells were washed with freshly prepared 20 mM Hepes, 1 mM MgSO4, 3.3 mM Na2CO3, 1.3 mM CaCl2, 0.1% BSA, 2.5 mM probenecid in 1X Hank's balanced salt solution (Gibco #14185), pH7.4 buffer and loaded with 1 μM Ca^2+-sensitive fluorescent dye Fluo-4 AM (Invitrogen # F14202) for 1 h at 37°C. Cells were washed once and incubated with 50 μl of buffer. A plate was prepared with the various concentrations of peptides to be tested, and 50 μl of 2X concentrated-drug solution was added in each well after 20 s of recording. Fluorescence signals (excitation 485 nm, emission 525 nm) were measured by using the fluorescence microplate reader Flexstation (Molecular Devices) at sampling intervals of 1.5 s for 60 s. All represented data correspond to means ± standard deviation (SD) from experiments performed in triplicate.\nThis method allows detecting ligand-induced activation of the receptor by measuring the release of intracellular calcium."}, "[5]": {"biological_target": "T2, Apime-ASTC-R", "experiment": "Intracellular calcium measurement, HEK293 cells expressing Apime-ASTC-R with Gαqi9 chimeric G protein", "type": "cell-based", "conditions": "concentrations up to 0.1mM; data not shown", "procedure": "as §5\nIn all cases, 2 μg of plasmid DNA encoding the Gαqi9 chimeric G protein was included to enable artificial coupling of the receptors to phospholipase C. […]\nCells were washed with freshly prepared 20 mM Hepes, 1 mM MgSO4, 3.3 mM Na2CO3, 1.3 mM CaCl2, 0.1% BSA, 2.5 mM probenecid in 1X Hank's balanced salt solution (Gibco #14185), pH7.4 buffer and loaded with 1 μM Ca^2+-sensitive fluorescent dye Fluo-4 AM (Invitrogen # F14202) for 1 h at 37°C. […] Fluorescence signals (excitation 485 nm, emission 525 nm) were measured by using the fluorescence microplate reader Flexstation (Molecular Devices) at sampling intervals of 1.5 s for 60 s. […]"}}, "note": "*1 amine or outer side, *2 acyl side, *3 side chain or, on linkers, in order; H or OH if unused. Where a SMILES comes first, the peptide text is derived from it. Where no end group is shown, it is not given here. Side-chain parts run from the residue outwards. [ ]: non-standard residue; d: D form. The star is where a group is joined. Ethylenediamine = C(CN[*:2])N[*:1]; Hyp = O=C(O)[C@@H]1C[C@@H](O)CN1; Phg = N[C@H](C(=O)O)c1ccccc1; CO = O=C([*:1])[*:2]; Bn = c1ccc(C*)cc1", "data": [{"compound": "C=C[C@@]1(C)CC(=O)[C@]2(O)[C@@]3(C)[C@@H](O)CCC(C)(C)[C@@H]3[C@H](OC(=O)CCN(C)C)[C@H](OC(C)=O)[C@@]2(C)O1.Cl", "note": "[NKH-477, reference compound]", "values": [{"measurement": "increase in bioluminescence (cAMP), in words", "setting": "[1]; 10 nM to 10 μM", "result": "increased bioluminescence in a dose-dependent manner"}, {"measurement": "increase in bioluminescence (cAMP) compared to baseline", "setting": "[1]; 10 μM, CRE-luciferase, 200 μM IBMX, Fig 5B, 2 transfections in duplicates or triplicates", "result": 2.5, "unit": "fold"}, {"measurement": "ability to increase bioluminescence versus mock-transfected cells, in words", "setting": "[2]; Fig 5B, 2 transfections in duplicates or triplicates", "result": "reduced ability to increase bioluminescence levels"}, {"measurement": "increase in cAMP levels (bioluminescence)", "setting": "[2]; same concentrations as in mock cells (10 nM to 10 μM), CRE-luciferase, IBMX, Fig 5B, 2 transfections in duplicates or triplicates", "result": 1.59, "unit": "fold"}, {"measurement": "ability to increase bioluminescence versus mock-transfected cells, in words", "setting": "[3]", "result": "reduced ability to increase bioluminescence levels"}, {"measurement": "increase in cAMP levels (bioluminescence)", "setting": "[3]; same concentrations as in mock cells (10 nM to 10 μM), CRE-luciferase, IBMX", "result": 1.24, "unit": "fold"}]}, {"compound": "NCCCC[C@@H]1NC(=O)[C@@H](Cc2c[nH]c3ccccc23)NC(=O)[C@H](c2ccccc2)NC(=O)[C@@H]2C[C@@H](OC(=O)NCCN)CN2C(=O)[C@H](Cc2ccccc2)NC(=O)[C@H](Cc2ccc(OCc3ccccc3)cc2)NC1=O", "note": "[SOM230, reference compound] (cyclo([Hyp]([CO-Ethylenediamine])[Phg][dW]KY(Bn)F); ring closure inferred)", "values": [{"measurement": "calcium release", "setting": "[4]; concentrations up to 0.1mM, data not shown", "result": "No calcium release was detected"}, {"measurement": "calcium release", "setting": "[5]", "result": "No calcium release was detected"}]}, {"compound": "GRQPYSFGL-NH2 [Apime-ASTA]", "values": [{"measurement": "EC50", "setting": "[4]; HEK293, Gαqi9, Fluo-4 AM, Flexstation (ex 485 nm, em 525 nm), pH 7.4, experiments in triplicate, read-out: EC50, calcium release", "result": 1.99, "unit": "nM"}, {"measurement": "EC50", "setting": "[2]; CRE-luciferase, 200 μM IBMX, no exogenous G protein, 37°C 3–4 h, normalized to mock-transfected cells, 3 independent transfections in triplicate, Fig 5C, read-out: mean EC50, increase in cAMP levels", "result": 103, "unit": "nM"}]}]}
